pEC50: −log10 of the molar value.
Molecular target: T1, RORγ-LBD (Homo sapiens, UniProt P51449)
T1 construct: made in house; host or cells: SF9 cells (baculovirus); used as diluted lysate
T1 sequence (P51449 269-508 limits assumed): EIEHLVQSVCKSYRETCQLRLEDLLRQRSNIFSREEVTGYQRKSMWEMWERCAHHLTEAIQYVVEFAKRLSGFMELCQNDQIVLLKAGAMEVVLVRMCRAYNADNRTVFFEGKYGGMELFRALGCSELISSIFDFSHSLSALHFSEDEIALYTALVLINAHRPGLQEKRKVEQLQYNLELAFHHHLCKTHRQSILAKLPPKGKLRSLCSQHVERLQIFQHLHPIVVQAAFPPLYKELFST
Assay: RORγ-Ligand Binding Domain (LBD) TR-FRET Assay;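 as to TR-FRET Assay Max Response: 665/615 nm signal ratio set to 100 without ursolic acid or test compound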
Format: biochemical
Details: for TR-FRET Assay Max Response: maximum response
Experimental: Assay procedures and results are described below.
HIS-tagged RORγ-LBD protein was expressed in SF9 cells using a baculovirus expression system. The lysate was diluted in assay buffer (50 mM Tris pH 7.0, 50 mM KCl, 1 mM EDTA, 0.1 mM DTT, 0.01% BSA) to obtain RORγ-LBD final concentration of ˜3 nM in a 384-well assay plate (need to titrate for each batch of protein).
A stock of biotinylated-LXXLL peptide from coactivator SRC1 (Biotin-[…]) was prepared in assay buffer and added to each well (200 nM final concentration). […] RORγ antagonist ursolic acid was also included at a final concentration of 2 μM. Compounds were diluted in DMSO and further diluted in assay buffer with a final DMSO concentration at 1%.

[1] = with 2 μM ursolic acid (RORγ antagonist), highest test concentration 10 μM

Structure (SMILES) | pEC50 (RORγ-LBD TR-FRET) | pEC50 (RORγ-LBD TR-FRET assay) | TR-FRET Assay Max Response (RORγ-LBD TR-FRET assay) | pEC50 [1]
COC(=O)CC[C@H]1CN(S(=O)(=O)c2cc(C(F)(F)F)cnc2OC(C)C)c2cc(/C=C/c3c(F)cccc3Cl)ccc2O1 [Example 89FL, methyl (S,E)-3-(6-(2-chloro-6-fluorostyryl)-4-((2-isopropoxy-5-(trifluoromethyl)pyridin-3-yl)sulfonyl)-3,4-dihydro-2H-benzo[b][1,4]oxazin-2-yl)propanoate] | 5.30 to 6.30 | – | – | –
CCOc1ncc(C(F)(F)F)cc1S(=O)(=O)N1C[C@H](CCC(=O)OC)Oc2ccc(C=C3CCCCC3)cc21 [Example 95A, methyl (S)-3-(6-(cyclohexylidenemethyl)-4-((2-ethoxy-5-(trifluoromethyl)pyridin-3-yl)sulofnyl)-3,4-dihydro-2H-benzo[b][1,4]oxazin-2-yl)propanoate] | 5.30 to 6.30 | – | – | –
O=C(O)CC[C@H]1CN(S(=O)(=O)c2cc(C(F)(F)F)cnc2OCCO)c2cc(C=C3CCC(O)CC3)ccc2O1 (stereo partly drawn) [Example 95V, 3-((2S)-6-((4-hydroxycyclohexylidene)-methyl)-4-((2-(2-hydroxyethoxy)-5-(trifluoromethyl)pyridin-3-yl)sulfonyl)-3,4-dihydro-2H-benzo[b][1,4]oxazin-2-yl)propanoic acid] | 5.30 to 6.30 | – | – | –
O=C(O)CC[C@H]1CN(S(=O)(=O)c2cc(C(F)(F)F)cnc2OCCO)c2cc(/C=C3\CCCOC3)ccc2O1 [Example 95X, (S,E)-3-(6-((dihydro-2H-pyran-3(4H)-ylidene)methyl)-4-((2-(2-hydroxyethoxy)-5-(trifluoromethyl)pyridin-3-yl)sulfonyl)-3,4-dihydro-2H-benzo[b][1,4]oxazin-2-yl)propanoic acid] | 5.30 to 6.30 | – | – | –
Cc1noc(C)c1NC(=O)N[C@@H]1Cc2ccc(/C=C/c3c(F)cccc3C(F)(F)F)cc2N(S(=O)(=O)c2cccc(C(F)(F)F)c2)[C@@H]1C [Example 116L, 1-(3,5-dimethylisoxazol-4-yl)-3-((2R,3R)-7-((E)-2-fluoro-6-(trifluoromethyl)styryl)-2-methyl-1-((3-(trifluoro-methyl)phenyl)sulfonyl)-1,2,3,4-tetrahydroquinolin-3-yl)urea] | – | > 6.30 | *** (a value in the range of greater than 150 to 200) | –
C[C@@H]1[C@H](NC(=O)Nc2ccccn2)Cc2ccc(/C=C/c3c(F)cccc3C(F)(F)F)cc2N1S(=O)(=O)c1cccc(C(F)(F)F)c1 [Example 116M, 1-((2R,3R)-7-((E)-2-fluoro-6-(trifluoromethyl)styryl)-2-methyl-1-((3-(trifluoro-methyl)phenyl)sulfonyl)-1,2,3,4-tetrahydroquinolin-3-yl)-3-(pyridin-2-yl)urea] | – | 5.30 to 6.30 | *** (a value in the range of greater than 150 to 200) | –
COC(=O)N[C@@H]1Cc2ccc(/C=C(\C)c3c(F)cccc3Cl)cc2N(S(=O)(=O)c2cccc(C(F)(F)F)c2)[C@@H]1C [Example 143, Methyl ((2R,3R)-7-((E)-2-(2-chloro-6-fluorophenyl)prop-1-en-1-yl)-2-methyl-1-((3-(trifluoromethyl)phenyl)sulfonyl)-1,2,3,4-tetrahydroquinolin-3-yl)carbamate] | – | > 6.30 | ** (a value in the range of greater than 90 to 150) | –
CNC(=O)N[C@@H]1Cc2ccc(/C=C(\C)c3c(F)cccc3Cl)cc2N(S(=O)(=O)c2cccc(C(F)(F)F)c2)[C@@H]1C [Example 145, 1-((2R,3R)-7-((E)-2-(2-Chloro-6-fluorophenyl)prop-1-en-1-yl)-2-methyl-1-((3-(trifluoromethyl)phenyl)sulfonyl)-1,2,3,4-tetrahydroquinolin-3-yl)-3-methylurea] | – | > 6.30 | ** (a value in the range of greater than 90 to 150) | –
CC(=O)N[C@@H]1Cc2ccc(/C=C(\C)c3c(F)cccc3Cl)cc2N(S(=O)(=O)c2cccc(C(F)(F)F)c2)[C@@H]1C [Example 148, N-((2R,3R)-7-((E)-2-(2-Chloro-6-fluorophenyl)prop-1-en-1-yl)-2-methyl-1-((3-(trifluoromethyl)phenyl)sulfonyl)-1,2,3,4-tetrahydroquinolin-3-yl)acetamide] | – | > 6.30 | ** (a value in the range of greater than 90 to 150) | –
C/C(=C\c1ccc2c(c1)C[C@@H](C(=O)O)[C@@H](C)N2S(=O)(=O)c1cccc(C(F)(F)F)c1)c1c(F)cccc1Cl [Example 149, (2R,3R)-6-((E)-2-(2-Chloro-6-fluorophenyl)prop-1-en-1-yl)-2-methyl-1-((3-(trifluoromethyl)phenyl)sulfonyl)-1,2,3,4-tetrahydroquinoline-3-carboxylic acid] | – | < 5.00 | – | –
C/C(=C\c1ccc2c(c1)CC(CC(=O)O)CN2S(=O)(=O)c1cccc(C(F)(F)F)c1)c1c(F)cccc1Cl (stereo not drawn) [Example 150, (E)-2-(6-(2-(2-Chloro-6-fluorophenyl)prop-1-en-1-yl)-1-((3-(trifluoromethyl)phenyl)sulfonyl)-1,2,3,4-tetrahydroquinolin-3-yl)acetic acid] | – | < 5.00 | – | –
COc1cc(S(=O)(=O)N2c3cc(OCc4c(F)cccc4Cl)ccc3C[C@@H](CO)[C@H]2C)ccc1F [Example 151, ((2R,3R)-7-((2-Chloro-6-fluorobenzyl)oxy)-1-((4-fluoro-3-methoxyphenyl)sulfonyl)-2-methyl-1,2,3,4-tetrahydroquinolin-3-yl)methanol] | – | > 6.30 | ** (a value in the range of greater than 90 to 150) | –
COC(=O)C(C)(C)C[C@@H]1Cc2ccc(/C=C(\C)c3c(F)cccc3Cl)cc2N(S(=O)(=O)c2ccc(F)c(OC)c2)C1 [Example 154B, methyl (S,E)-3-(7-(2-(2-chloro-6-fluorophenyl)prop-1-en-1-yl)-1-((4-fluoro-3-methoxyphenyl)sulfonyl)-1,2,3,4-tetrahydroquinolin-3-yl)-2,2-dimethylpropanoate] | – | > 6.30 | ** (a value in the range of greater than 90 to 150) | –
CCOC(=O)C(C)(C)CC1CC(S(=O)(=O)c2ccc(F)c(OC)c2)c2cc(OCc3c(F)cccc3Cl)ccc2O1 (stereo not drawn) [Example 185, Ethyl 3-(6-((2-chloro-6-fluorobenzyl)oxy)-4-((4-fluoro-3-methoxyphenyl)sulfonyl)chroman-2-yl)-2,2-dimethylpropanoate] | – | > 6.30 | ** (a value in the range of greater than 90 to 150) | –
CCOC(=O)C(C)(C)CC1CC(S(=O)(=O)c2cccc(C(F)(F)F)c2)c2cc(OCc3c(F)cccc3Cl)ccc2O1 (stereo not drawn) [Example 186D, ethyl 3-(6-((2-chloro-6-fluorobenzyl)oxy)-4-((3-(trifluoromethyl)phenyl)-sulfonyl)chroman-2-yl)-2,2-dimethylpropanoate] | – | > 6.30 | *** (a value in the range of greater than 150 to 200) | –
COc1cc(S(=O)(=O)C2CC(CC(C)(C)C(=O)O)Oc3ccc(/C=C(\C)c4c(F)cccc4Cl)cc32)ccc1F (stereo not drawn) [Example 186K, (E)-3-(6-(2-(2-chloro-6-fluorophenyl)prop-1-en-1-yl)-4-((4-fluoro-3-methoxyphenyl)-sulfonyl)chroman-2-yl)-2,2-dimethylpropanoic acid] | – | > 6.30 | *** (a value in the range of greater than 150 to 200) | –
C/C(=C\c1ccc2c(c1)N(S(=O)(=O)c1cccc(C(F)(F)F)c1)C[C@H](CCCC(=O)O)O2)c1c(F)cccc1Cl [Example 195G, (S,E)-4-(6-(2-(2-chloro-6-fluorophenyl)prop-1-en-1-yl)-4-((3-(trifluoromethyl)phenyl)-sulfonyl)-3,4-dihydro-2H-benzo[b][1,4]oxazin-2-yl)butanoic acid] | – | – | – | > 6.30
COC(=O)CCC[C@H]1CN(S(=O)(=O)c2cccc(C(F)(F)F)c2)c2cc(/C=C(\C)c3c(F)cccc3Cl)ccc2O1 [Example 195H, methyl (S,E)-4-(6-(2-(2-chloro-6-fluorophenyl)prop-1-en-1-yl)-4-((3-(trifluoromethyl)phenyl)-sulfonyl)-3,4-dihydro-2H-benzo[b][1,4]oxazin-2-yl)butanoate] | – | – | – | > 6.30
CCOC(=O)C1Cc2ccc(OCc3c(F)cccc3Cl)cc2N(S(=O)(=O)c2cn(CC)nc2Cl)C1 (stereo not drawn) [drawing 1599] | – | – | – | > 6.30
Cc1nn(C(F)F)cc1S(=O)(=O)N1CC(CO)Cc2ccc(OCc3c(F)cccc3Cl)cc21 (stereo not drawn) [drawing 1601] | – | – | – | > 6.30
